These results are taken from patent US8372855B2, “Cyclohexyloxy-substituted heterocyclics, medicines containing these compounds and method for the production thereof” (Boehringer Ingelheim International GmbH, priority 2008, dated 2013).

Molecules are shown by their SMILES.

For the assay, the target named is T1, human EGF-R (Homo sapiens, UniProt P00533).
T1 construct: expressed in transfected cells
T1 sequence (P00533 25-1210): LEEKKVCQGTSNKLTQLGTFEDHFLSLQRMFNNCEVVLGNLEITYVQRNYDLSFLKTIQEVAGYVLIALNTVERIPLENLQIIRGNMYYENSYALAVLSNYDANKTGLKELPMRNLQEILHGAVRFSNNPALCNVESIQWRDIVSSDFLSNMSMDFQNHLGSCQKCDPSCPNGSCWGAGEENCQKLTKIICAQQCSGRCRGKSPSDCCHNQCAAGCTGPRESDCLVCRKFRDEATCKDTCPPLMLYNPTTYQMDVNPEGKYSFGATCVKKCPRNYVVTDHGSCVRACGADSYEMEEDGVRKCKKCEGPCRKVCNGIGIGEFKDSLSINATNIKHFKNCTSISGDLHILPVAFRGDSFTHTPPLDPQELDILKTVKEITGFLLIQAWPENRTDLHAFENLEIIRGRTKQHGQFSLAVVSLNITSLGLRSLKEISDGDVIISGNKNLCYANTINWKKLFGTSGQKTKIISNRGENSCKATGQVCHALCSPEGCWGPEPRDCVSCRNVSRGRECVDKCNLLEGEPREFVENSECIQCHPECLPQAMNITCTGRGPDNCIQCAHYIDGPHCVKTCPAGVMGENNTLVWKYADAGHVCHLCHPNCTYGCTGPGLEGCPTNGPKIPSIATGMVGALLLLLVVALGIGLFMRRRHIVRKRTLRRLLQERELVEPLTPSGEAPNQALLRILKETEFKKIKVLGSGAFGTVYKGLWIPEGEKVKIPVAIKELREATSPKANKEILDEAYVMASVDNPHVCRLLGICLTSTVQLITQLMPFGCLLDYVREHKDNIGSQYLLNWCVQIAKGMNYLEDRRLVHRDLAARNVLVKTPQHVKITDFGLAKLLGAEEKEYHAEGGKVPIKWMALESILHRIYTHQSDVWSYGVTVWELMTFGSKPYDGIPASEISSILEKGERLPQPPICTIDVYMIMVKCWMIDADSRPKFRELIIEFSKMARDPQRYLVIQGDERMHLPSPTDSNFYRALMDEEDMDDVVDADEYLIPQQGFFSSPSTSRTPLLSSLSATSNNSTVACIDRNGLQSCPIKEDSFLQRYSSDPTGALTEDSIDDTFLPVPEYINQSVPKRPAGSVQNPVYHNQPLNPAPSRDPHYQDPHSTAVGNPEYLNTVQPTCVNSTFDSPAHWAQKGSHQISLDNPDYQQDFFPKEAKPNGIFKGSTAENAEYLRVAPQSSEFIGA
The assay can be described thus: Inhibition of EGFR-dependent proliferation (EGF-stimulated murine haematopoietic cell line expressing human EGF-R, Cell Titer 96 AQueous assay). It counts as cell-based. Particulars: 20 ng/ml human EGF, 48 hours at 37° C. The method, then:
A murine haematopoietic cell line is genetically modified so as to express functional human EGF-R. The proliferation of this cell line can therefore be stimulated by EGF.
The test is carried out as follows:
The cells are cultivated in RPMI/1640 medium. The proliferation is stimulated with 20 ng/ml of human EGF (Promega). To investigate the inhibitory activity of the compounds according to the invention these compounds are dissolved in 100% dimethylsulphoxide (DMSO) and added to the cultures in various dilutions, the maximum DMSO concentration being 1%. The cultures are incubated for 48 hours at 37° C.
In order to determine the inhibitory activity of the compounds according to the invention the relative cell number is measured in O.D. units using the Cell Titer 96™ AQueous Non-Radioactive Cell Proliferation Assay (Promega). The relative cell number is calculated as a percentage of the control and the concentration of active substance which inhibits the proliferation of the cells by 50% (IC50) is derived therefrom.
What is called IC50 is the concentration that inhibits the measured activity by half. A low value points to higher potency. `COc1cc2ncnc(Nc3cccc(Cl)c3F)c2cc1O[C@H]1CC[C@H](N2CCN(CC3CC3)C(=O)C2)CC1` [1(1), trans] registered an IC50 of 1.7 nM.

`CCCCN1CCN([C@H]2CC[C@@H](Oc3cc4c(Nc5cccc(Cl)c5F)ncnc4cc3OC)CC2)CC1=O` [1(2), cis] registered a half-inhibitory concentration (IC50) of 12.1 nM.

As to `COc1cc2ncnc(Nc3cccc(Cl)c3F)c2cc1O[C@H]1CC[C@@H](N2CCN(C3CCOCC3)C(=O)C2)CC1` [1(3), cis], the half-maximal inhibitory concentration (IC50) was 9.3 nM.

Compound `CCCCN1CCN([C@H]2CC[C@H](Oc3cc4c(Nc5cccc(Cl)c5F)ncnc4cc3OC)CC2)CC1=O` [1(2), trans] displayed an IC50 of 3.1 nM.

Consider `CCN1CCN([C@H]2CC[C@@H](Oc3cc4c(Nc5cccc(Cl)c5F)ncnc4cc3OC)CC2)CC1=O` [1, cis], for which the IC50 worked out at 7.1 nM.

Turning to `COc1cc2ncnc(Nc3cccc(Cl)c3F)c2cc1O[C@H]1CC[C@@H](N2CCN(CC3CC3)C(=O)C2)CC1` [1(1), cis], the 50% inhibitory concentration (IC50) is 10.1 nM.

With `COc1cc2ncnc(Nc3cccc(Cl)c3F)c2cc1O[C@H]1CC[C@H](N2CCN(C3CCOCC3)C(=O)C2)CC1` [1(3), trans], 1.6 nM corresponded to half-maximal inhibition (IC50).

For `CCN1CCN([C@H]2CC[C@H](Oc3cc4c(Nc5cccc(Cl)c5F)ncnc4cc3OC)CC2)CC1=O` [1, trans], the IC50 was 1.3 nM.
